Results on 7 compounds are retold here after patent US20240293558A1, “KRAS INHIBITOR CONJUGATES” (Erasca, Inc., priority 2021, published 2024).

Read-outs that look alike come from different tables or passages of the source. Where only a bound is given, the exact number is not on record here.

As usually defined, the IC50 is the concentration needed to halve the response being measured. As usually defined, the DC50 is the concentration at which degradation of the target reaches its halfway point.

Assay [1] deals with T1, KRAS (WT) (Homo sapiens, UniProt P01116).
T1 construct: Biotinylated KRAS protein amino acids 1-169 (produced at Erasca); made in house
T1 sequence (P01116 1-169 isoform P01116-2): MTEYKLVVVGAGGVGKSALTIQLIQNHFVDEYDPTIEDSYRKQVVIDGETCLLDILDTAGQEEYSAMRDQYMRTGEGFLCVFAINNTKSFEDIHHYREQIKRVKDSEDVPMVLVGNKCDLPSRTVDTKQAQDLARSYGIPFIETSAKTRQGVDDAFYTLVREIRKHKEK
The assay is described as follows: In-vitro RAS-RAF binding assay (RRB), HTRF/FRET. Conditions: read-out: Inhibition of RAS-RAF Binding (in-vitro) KRAS (WT) IC50. The assay is classed as biochemical. Put shortly: (§1)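 Biotinylated KRAS 1-169 (streptavidin-terbium donor, 30 nM) and GST-cRAF RBD (anti-GST d2 acceptor, 30 nM) in HEPES pH 7.5, NaCl, MgCl2, DTT buffer. After compound incubation, SOS1 catalytic domain plus GTPgS drive 60 min nucleotide exchange. HTRF FRET read at equilibrium, in duplicate.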
A general note: In TR-FRET formats the signal depends on donor and acceptor labels being close together.

For assay [2], the target named is T2, KRas G12D fused to HiBiT peptide (Homo sapiens, UniProt P01116, G12D).
T2 construct: endogenous in cells; host or cells: AsPC-1 HiBiT knock-in single clone (Cas9 RNP + ssODN)
T2 sequence (P01116 1-188 isoform P01116-2 G12D): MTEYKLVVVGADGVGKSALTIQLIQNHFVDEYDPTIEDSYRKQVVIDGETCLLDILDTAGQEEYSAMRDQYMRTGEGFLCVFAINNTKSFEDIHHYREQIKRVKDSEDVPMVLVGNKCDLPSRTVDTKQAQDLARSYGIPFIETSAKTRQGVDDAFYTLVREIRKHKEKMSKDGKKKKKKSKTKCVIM
Kind of assay: ASPC-1 HiBit assay to determine G12D degradation. Conditions: AsPC-1 HiBiT cells, 24-hour incubation; read-out: ASPC-1 HiBit DC50 (C). The assay is classed as cell-based. As for the experimental part: Compounds presented herein induce degradation of the KRas G12D (KRasG12D) upon treatment of engineered cancer cell line.
The degradation of the KRasG12D in cellular environment was measured using engineered homozygous KRasG12D AsPC-1 cell line in which KRas G12D was fused to luminescent HiBiT peptide at the N-terminal. The small (1.3 kDa) HiBiT peptide complements with high affinity to a larger (18 kDa) subunit evolved from NanoLuc (termed LgBiT). The resulting complex (i.e., reconstituted luciferase enzyme) generates bright luminescence that translates to high sensitivity (1 amol), broad dynamic range (four orders of magnitude), and rapid kinetics for real time quantitation.
To generate HiBit KRasG12D knock-in cell line, sgRNA (SEQ. ID NO: 1) and ssODN (SEQ. ID NO: 2) were designed and synthesized at GenScript.
RNP complex was generated by mixing of 100 pmol of Cas9 protein to PCR tubes containing 300 pmol sgRNA incubating the resultant complex at room temperature for 20 min. […] ssODN was added to RNP complex slowly and RNP-ssODN complex was incubated at room temperature for 10 min. RNP-ssODN complex was mixed with […] of AsPC-1 cells (1×10^6 cells total) and electroporated using Nucleofactor (Program CM-150). Cells were then incubated at ambient temperature for 5 min and transferred to a six-well plate containing 2 ml growth medium.
To select pools with the highest luminescence signal, 10^4 cells of parental AsPC-1 and transfected pools were plated in solid white 384-well tissue culture plates. 24 hours after seeding, HiBiT was detected using the Nano-Glo HiBiT Lytic Detection System (Promega) following manufacturer's instructions. Briefly, […] of Nano-Glo HiBiT Lytic Detection Reagent was added directly to the cells and mixed by inversion before recording luminescence on an Envision (Perkin-Elmer) with 0.5 s integration time.
Single clones were isolated from stable pool by limited dilution method and presence of HiBiT knock-in was verified by TA cloning and subsequent sequencing. Additionally, western blotting analysis was conducted to confirm selection of single clones with high luminescence signal.
For DC50S measurements, AsPC-1 HiBiT single clone cells were grown in RPMI 1640 medium (Invitrogen 22400-089) supplemented with 10% fetal bovine serum. Cells were seeded in 384-well tissue culture plates at a density of 7,000 cells/well and allowed to attach for 24 hours.
Test compounds were distributed directly into assay plate with the adjustment for DMSO concentration using Tecan HP D300e. For most of the experiments, the final concentration of compounds starts from 10 μM, 3-fold dilution dose response and 10 doses. […] DMSO final concentration is 1%. Each concentration of exemplary compound was tested as singleton. The negative control wells were cells with DMSO only, and the positive control wells were cells with […] inhibitor.
Following 24-hour incubation with the compounds plate and Nano-Glo® HiBiT Lytic reagents were equilibrated to room temperature. 20 μL of HiBiT Lytic reagent were added to each well. The assay plate was incubated on digital microplate shaker (350 rpm) for 20 min followed by centrifugation at 500 g for 1 min. Luminescence was recorded using Envision (Perkin-Elmer) using aperture 384-L1 with 0.1 s integration time.
HiBiT signal are used to calculate the % degradation at given compound concentration using the following formula:
% Degradation=(1−(Sample HiBiT signal−Ave Min signal)/(Ave Max signal−Ave Min signal))*100%
For DC50 calculation, the data with the hook effect were removed first and DC50S was reported using a 4-parameter fit of dose response curve using GraphPad in those cases where maximum % degradation was >50% and Minimal % degradation was <50%. The decrease in DC50 reflects that the exemplary compound led to a higher level of degradation of KRasG12D than another exemplary compound at specific timepoint of treatment of cancer cell line. […]
A general note: The HiBiT peptide binds its large partner to form an active luciferase.

Assay [3] concerns the target KRAS G12D (Homo sapiens, UniProt P01116, G12D). Kind of assay: In-vitro RAS-RAF binding assay (RRB), HTRF/FRET. It counts as biochemical. Also noted: Biotinylated KRAS protein amino acids 1-169 (produced at Erasca); made in house. Particulars: read-out: Inhibition of RAS-RAF Binding (in-vitro) KRAS (G12D) IC50. Put shortly:
as §1

Setting [4] is: Table 2, average of multiple runs of each compound.

Sequence of KRAS G12D (P01116 1-169 isoform P01116-2 G12D): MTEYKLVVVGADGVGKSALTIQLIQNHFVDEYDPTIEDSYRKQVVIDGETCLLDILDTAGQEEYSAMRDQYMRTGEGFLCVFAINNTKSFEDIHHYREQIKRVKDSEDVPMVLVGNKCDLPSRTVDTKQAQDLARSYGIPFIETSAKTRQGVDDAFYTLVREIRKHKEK

`C#Cc1c(F)ccc2cc(O)cc(-c3ncc4c(N5CC6CCC(C5)N6)nc(OCCN5CCC6(CC5)CN(c5cc([C@H](C(=O)N7C[C@H](O)C[C@H]7C(=O)N[C@@H](C)c7ccc(-c8cccc(F)c8F)cc7)C(C)C)on5)C6)nc4c3F)c12` [Example 98, (2S,4R)-1-((2R)-2-(3-(7-(2-((4-(3,8-diazabicyclo[3.2.1]octan-3-yl)-7-(8-ethynyl-7-fluoro-3-hydroxynaphthalen-1-yl)-8-fluoropyrido[4,3-d]pyrimidin-2-yl)oxy)ethyl)-2,7-diazaspiro[3.5]nonan-2-yl)isoxazol-5-yl)-3-methylbutanoyl)-N—((S)-1-(2′,3′-difluoro-[1,1′-biphenyl]-4-yl)ethyl)-4-hydroxypyrrolidine-2-carboxamide]: the values for the IC50 in assay [1] (setting [4]) and in assay [3] (setting [4]) were 1430 nM and 16 nM, respectively. In addition, in assay [2], the DC50 turned out to be 107 nM.
In the case of `C#Cc1c(F)ccc2cc(O)cc(-c3ncc4c(N5CC6CCC(C5)N6)nc(OC[C@@H]5CCCN5CCCOCCC(=O)N[C@H](C(=O)N5C[C@H](O)C[C@H]5C(=O)N[C@@H](C)c5ccc(-c6c(F)cccc6F)cc5)C(C)(C)C)nc4c3F)c12` [Example 14, (2S,4R)-1-[(2S)-2-[3-[3-[(2S)-2-[[4-(3,8-diazabicyclo[3.2.1]octan-3-yl)-7-(8-ethynyl-7-fluoro-3-hydroxy-1-naphthyl)-8-fluoro-pyrido[4,3-d]pyrimidin-2-yl]oxymethyl]pyrrolidin-1-yl]propoxy]propanoylamino]-3,3-dimethyl-butanoyl]-N-[(1S)-1-[4-(2,6-difluorophenyl)phenyl]ethyl]-4-hydroxy-pyrrolidine-2-carboxamide], the concentration for half-maximal inhibition (IC50) was determined as 41.9 nM in assay [1] (Table 1), 41.9 nM in assay [1] (setting [4]), 9.4 nM in assay [3] (Table 1) and 9.4 nM in assay [3] (setting [4]). Besides, in assay [2], the DC50 was 331 nM.
On to `C#Cc1c(F)ccc2cc(O)cc(-c3ncc4c(N5CC6CCC(C5)N6)nc(OCCN5CCC(COc6cc([C@H](C(=O)N7C[C@H](O)C[C@H]7C(=O)N[C@@H](C)c7ccc(-c8scnc8C)cc7)C(C)C)on6)CC5)nc4c3F)c12` [Example 60, (2S,4R)-1-((2R)-2-(3-((1-(2-((4-(3,8-diazabicyclo[3.2.1]octan-3-yl)-7-(8-ethynyl-7-fluoro-3-hydroxynaphthalen-1-yl)-8-fluoropyrido[4,3-d]pyrimidin-2-yl)oxy)ethyl)piperidin-4-yl)methoxy)isoxazol-5-yl)-3-methylbutanoyl)-4-hydroxy-N-((S)-1-(4-(4-methylthiazol-5-yl)phenyl)ethyl)pyrrolidine-2-carboxamide], for which the 50% inhibitory concentration (IC50) was determined as 188 nM in assay [1] (setting [4]) and 9.55 nM in assay [3] (setting [4]). Besides, the DC50 in assay [2] was found to be 108 nM.
The like results for `C#Cc1c(F)ccc2cc(O)cc(-c3ncc4c(N5CC6CCC(C5)N6)nc(OCCN5CCC6(C5)CN(c5cc([C@H](C(=O)N7C[C@H](O)C[C@H]7C(=O)N[C@@H](C)c7ccc(-c8c(F)cccc8F)cc7)C(C)C)on5)C6)nc4c3F)c12` [Example 101, (2S,4R)-1-((2R)-2-(3-(6-(2-((4-(3,8-diazabicyclo[3.2.1]octan-3-yl)-7-(8-ethynyl-7-fluoro-3-hydroxynaphthalen-1-yl)-8-fluoropyrido[4,3-d]pyrimidin-2-yl)oxy)ethyl)-2,6-diazaspiro[3.4]octan-2-yl)isoxazol-5-yl)-3-methylbutanoyl)-N—((S)-1-(2′,6′-difluoro-[1,1′-biphenyl]-4-yl)ethyl)-4-hydroxypyrrolidine-2-carboxamide] were, in that order, 1790 nM, 13 nM and 707 nM.
The corresponding values for `CC(C)[C@@H](C(=O)N1C[C@H](O)C[C@H]1C(=O)N[C@@H](C)c1ccc(-c2c(F)cc(F)cc2F)cc1)c1cc(OCC2(C)CCN(CCOc3nc(N4CC5CCC(C4)N5)c4cc(Cl)c(-c5ccc(F)c6sc(N)c(C#N)c56)c(F)c4n3)CC2)no1` [Example 72, (2S,4R)-1-((2R)-2-(3-((1-(2-((7-(2-amino-3-cyano-7-fluorobenzo[b]thiophen-4-yl)-4-(3,8-diazabicyclo[3.2.1]octan-3-yl)-6-chloro-8-fluoroquinazolin-2-yl)oxy)ethyl)-4-methylpiperidin-4-yl)methoxy)isoxazol-5-yl)-3-methylbutanoyl)-4-hydroxy-N-((S)-1-(2′,4′,6′-trifluoro-[1,1′-biphenyl]-4-yl)ethyl)pyrrolidine-2-carboxamide] are 6730 nM, 29.4 nM and 528 nM.
As for `CC(C)[C@@H](C(=O)N1C[C@H](O)C[C@H]1C(=O)N[C@@H](C)c1ccc(-c2c(F)cccc2F)cc1)c1cc(OCC2(F)CCN(CCOc3nc(N4CC5CCC(C4)N5)c4cc(Cl)c(-c5ccc(F)c6sc(N)c(C#N)c56)c(F)c4n3)CC2)no1` [Example 73, (2S,4R)-1-((2R)-2-(3-((1-(2-((7-(2-amino-3-cyano-7-fluorobenzo[b]thiophen-4-yl)-4-(3,8-diazabicyclo[3.2.1]octan-3-yl)-6-chloro-8-fluoroquinazolin-2-yl)oxy)ethyl)-4-fluoropiperidin-4-yl)methoxy)isoxazol-5-yl)-3-methylbutanoyl)-N-((S)-1-(2′,6′-difluoro-[1,1′-biphenyl]-4-yl)ethyl)-4-hydroxypyrrolidine-2-carboxamide], the IC50 in assay [1] (setting [4]) was greater than 10000 nM; in assay [3] (setting [4]), 47.6 nM. Further, the half-maximal degradation concentration (DC50) in assay [2] came to 349 nM.
Take `C#Cc1c(F)ccc2cc(O)cc(-c3ncc4c(N5CC6CCC(C5)N6)nc(OC[C@@H]5CCCN5CCCOCCC(=O)N[C@H](C(=O)N5C[C@H](O)C[C@H]5C(=O)N[C@@H](C)c5ccc(-c6c(F)cccc6C(F)(F)F)cc5)C(C)(C)C)nc4c3F)c12` [Example 43, (2S,4R)-1-((2S)-2-(3-(3-((2S)-2-(((4-(3,8-diazabicyclo[3.2.1]octan-3-yl)-7-(8-ethynyl-7-fluoro-3-hydroxynaphthalen-1-yl)-8-fluoropyrido[4,3-d]pyrimidin-2-yl)oxy)methyl)pyrrolidin-1-yl)propoxy)propanamido)-3,3-dimethylbutanoyl)-N-((S)-1-(2′-fluoro-6′-(trifluoromethyl)-[1,1′-biphenyl]-4-yl)ethyl)-4-hydroxypyrrolidine-2-carboxamide]: the figures for the 50% inhibitory concentration (IC50) in assay [1] (setting [4]) and in assay [3] (setting [4]) were 38.3 nM and 7.68 nM, respectively.
